This assay addresses T1, chimeric α7-5HT3 ion channel (UniProt P23979+P36544, M226I/T225I).
T1 construct: pore forming region of the mouse 5HT3 receptor (fusion partner, same polypeptide); expressed in transfected cells
The assay is described as follows: Cell-based FLIPR assay measuring the EC50 of α7 nAChR agonists on the chimeric α7-5HT3 receptor. The conditions noted are these: SH-EP1 cells expressing chimeric α7-5HT3 ion channel; increase in intracellular calcium (Calcium Green fluorescence, FLIPR). The arrangement: species or system human/mouse. From the text: Cell-based Assay for Measuring the EC50 of α7 nAChR Agonists
Construction and Expression of the α7-5HT3 Receptor:
The cDNA encoding the N-terminal 201 amino acids from the human α7 nAChR that contain the ligand binding domain of the ion channel was fused to the cDNA encoding the pore forming region of the mouse 5HT3 receptor as described by Eisele J L, et al., Chimaeric nicotinic-serotonergic receptor combines distinct ligand binding and channel specificities, Nature (1993), December 2;366(6454):479-83, and modified by Groppi, et al., WO 00/73431. The chimeric α7-5HT3 ion channel was inserted into pGS175 and pGS179 which contain the resistance genes for G-418 and hygromycin B, respectively. […]
To assay the activity of the α7-5HT3 ion channel, cells expressing the channel were plated into each well of either a 96 or 384 well dish (Corning #3614) and grown to confluence prior to assay. […] The activity of compounds on the chimeric α7-5HT3 ion channel was analyzed on FLIPR. […] Fluorescent emission was measured above 525 nanometers with an appropriate F-stop to maintain a maximal signal to noise ratio. Agonist activity of each compound was measured by directly adding the compound to cells expressing the chimeric α7-5HT3 ion channel and measuring the resulting increase in intracellular calcium that is caused by the agonist-induced activation of the chimeric ion channel. […]

T1 sequence (P36544+P23979 fused P36544:T225I/P36544:M226I): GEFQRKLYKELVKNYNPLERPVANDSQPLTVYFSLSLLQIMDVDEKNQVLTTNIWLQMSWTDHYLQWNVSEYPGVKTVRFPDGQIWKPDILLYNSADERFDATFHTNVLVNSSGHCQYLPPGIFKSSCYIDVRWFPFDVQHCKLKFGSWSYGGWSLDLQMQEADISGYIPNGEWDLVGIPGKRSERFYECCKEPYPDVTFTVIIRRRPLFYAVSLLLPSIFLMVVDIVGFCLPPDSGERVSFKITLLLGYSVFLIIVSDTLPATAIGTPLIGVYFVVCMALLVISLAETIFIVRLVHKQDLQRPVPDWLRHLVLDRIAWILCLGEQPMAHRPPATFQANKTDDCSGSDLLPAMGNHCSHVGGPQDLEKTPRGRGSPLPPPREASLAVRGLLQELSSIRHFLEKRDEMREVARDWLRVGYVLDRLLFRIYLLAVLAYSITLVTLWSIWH

Regarding `O=C(N[C@H]1CN2CCC1CC2)c1ccc2c(c1)OCC(COCc1ccccc1)O2.O=C(O)/C=C/C(=O)O` (single isomer, unassigned) [Example 6(b)], the “Agonist activity (result in words)” value was “inactive”. With `Cl.O=C(N[C@H]1CN2CCC1CC2)c1ccc2c(c1)O[C@H](COc1ccccc1)CO2` [Example 12, (3R)-N-[(3R)-1-Azabicyclo[2.2.2]oct-3-yl]-3-(phenoxymethyl)-2,3-dihydro-1,4-benzodioxine-6-carboxamide Hydrochloride] the entry was “inactive”.

(Values after patent US6951868B2, “Azabicyclic-phenyl-fused-heterocyclic compounds for treatment of disease” (Pfizer Inc., priority 2001, dated 2005).)
